Results on five molecules are retold here after patent US10519152B2, “Compounds and their use in treating cancer” (AstraZeneca AB, priority 2017, dated 2019).

Structures are written as SMILES.

Experiment [1] concerns the target T1, recombinant human Estrogen Receptor alpha ligand binding domain, residues 307-554 (ER alpha-LBD (GST)) (Homo sapiens, UniProt P03372).
T1 construct: made in house
T1 sequence (P03372 307-554): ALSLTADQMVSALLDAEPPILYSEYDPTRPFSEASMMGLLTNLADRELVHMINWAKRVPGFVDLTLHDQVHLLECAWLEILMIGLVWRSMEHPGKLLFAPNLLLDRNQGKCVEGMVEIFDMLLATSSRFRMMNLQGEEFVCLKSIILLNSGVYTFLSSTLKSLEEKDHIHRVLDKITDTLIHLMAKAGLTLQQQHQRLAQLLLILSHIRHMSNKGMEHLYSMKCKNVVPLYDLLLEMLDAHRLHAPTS
Briefly: ERα binding assay (LanthaScreen TR-FRET competition). As to conditions: TR-FRET competition with Fluormone ES2 tracer, 4 hours at room temperature; single experiment or average of two or more. A general note: In TR-FRET formats the signal depends on donor and acceptor labels being close together.

Experiment [2] has as its target T2, Estrogen Receptor (ERα) in MCF-7 human ductal carcinoma breast cell line (Homo sapiens, UniProt P03372).
T2 construct: endogenous in cells; host or cells: MCF-7
T2 sequence (P03372 1-595): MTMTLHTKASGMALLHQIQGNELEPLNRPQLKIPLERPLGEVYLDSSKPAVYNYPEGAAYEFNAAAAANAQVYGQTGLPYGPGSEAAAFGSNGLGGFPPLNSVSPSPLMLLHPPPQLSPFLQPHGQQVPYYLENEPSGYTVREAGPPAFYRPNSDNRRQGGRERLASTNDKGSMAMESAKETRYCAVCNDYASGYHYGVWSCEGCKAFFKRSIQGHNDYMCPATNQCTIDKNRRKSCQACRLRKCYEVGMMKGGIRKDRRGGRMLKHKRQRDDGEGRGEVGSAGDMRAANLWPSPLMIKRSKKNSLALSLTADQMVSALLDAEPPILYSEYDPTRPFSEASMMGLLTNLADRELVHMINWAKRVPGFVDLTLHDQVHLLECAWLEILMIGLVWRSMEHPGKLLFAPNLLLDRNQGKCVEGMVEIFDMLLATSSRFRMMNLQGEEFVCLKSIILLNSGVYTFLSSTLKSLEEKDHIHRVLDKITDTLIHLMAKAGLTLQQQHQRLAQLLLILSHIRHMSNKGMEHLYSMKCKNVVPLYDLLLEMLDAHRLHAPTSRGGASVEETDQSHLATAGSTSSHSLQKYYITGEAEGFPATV
Briefly: MCF-7 ER degradation assay (cell based immuno-fluorescence). As to conditions: MCF-7 cells; for DC50: 18-22 hours incubation, 50% reduction of ERα expression, single experiment or average of two or more, read-out: MCF-7 ER degradation IC50; for ER degradation ≥ 90% at 0.3 μM: ER degradation by fulvestrant at 0.3 μM is defined as 100%. In outline: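 MCF-7 human ductal carcinoma breast cells were seeded at 3.75×10^4 cells per mL (40 μL per well) in 384 well plates with phenol red free DMEM containing 2 mM L-Glutamine and 5% (v/v) Charcoal/Dextran treated foetal calf serum. After overnight culture, compounds were acoustically dispensed, incubated 18-22 hours, then cells were formaldehyde-fixed and immunostained for ERα.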

Usually IC50 stands for the concentration that inhibits the measured activity by half.

As to `CC(=O)O[C@@H]1C[C@@H](C(=O)NCc2ccc(-c3scnc3C)cc2)N(C(=O)[C@@H](NC(=O)COCCCCCCOc2cc(F)c([C@@H]3c4[nH]c5ccccc5c4C[C@@H](C)N3CC(C)(C)F)c(F)c2)C(C)(C)C)C1` [Example 52, (3R,5S)-1-((S)-2-(2-((6-(3,5-difluoro-4-((1R,3R)-2-(2-fluoro-2-methylpropyl)-3-methyl-2,3,4,9-tetrahydro-1H-pyrido[3,4-b]indol-1-yl)phenoxy)hexyl)oxy)acetamido)-3,3-dimethylbutanoyl)-5-((4-(4-methylthiazol-5-yl)benzyl)carbamoyl)pyrrolidin-3-yl acetate], the IC50 in experiment [1] stood at 1.1 nM. In addition, the DC50 in experiment [2] amounted to 2.1 nM.
As for `Cc1ncsc1-c1ccc(CNC(=O)[C@@H]2C[C@@H](O)CN2C(=O)[C@@H](NC(=O)COC2CCN(CCCNC(=O)/C=C/c3cc(F)c([C@@H]4c5[nH]c6ccccc6c5C[C@@H](C)N4CC(C)(C)F)c(F)c3)CC2)C(C)(C)C)cc1` [Example 65, (2S,4R)-1-((S)-2-(2-((1-(3-((E)-3-(3,5-difluoro-4-((1R,3R)-2-(2-fluoro-2-methylpropyl)-3-methyl-2,3,4,9-tetrahydro-1H-pyrido[3,4-b]indol-1-yl)phenyl)acrylamido)propyl)piperidin-4-yl)oxy)acetamido)-3,3-dimethylbutanoyl)-4-hydroxy-N-(4-(4-methylthiazol-5-yl)benzyl)pyrrolidine-2-carboxamide, Trifluoroacetic Acid], the IC50 in experiment [1] was 1.1 nM. Also, the DC50 in experiment [2] was 4.5 nM.
`Cc1ncsc1-c1ccc(CNC(=O)[C@@H]2C[C@@H](O)CN2C(=O)[C@@H](NC(=O)COCCCCCOc2cc(F)c([C@@H]3c4[nH]c5ccccc5c4C[C@@H](C)N3CC(F)(F)CO)c(F)c2)C(C)(C)C)cc1` [Example 70, (2S,4R)-1-((S)-2-(2-((5-(4-((1R,3R)-2-(2,2-Difluoro-3-hydroxypropyl)-3-methyl-2,3,4,9-tetrahydro-1H-pyrido[3,4-b]indol-1-yl)-3,5-difluorophenoxy)pentyl)oxy)acetamido)-3,3-dimethylbutanoyl)-4-hydroxy-N-(4-(4-methylthiazol-5-yl)benzyl)pyrrolidine-2-carboxamide]: the IC50 in experiment [1] stood at 0.8 nM. Also, the DC50 in experiment [2] turned out to be 0.9 nM.
For the molecule `Cc1ncsc1-c1ccc(CNC(=O)[C@@H]2C[C@@H](O)CN2C(=O)[C@@H](NC(=O)COCCCOCCCOc2cc(F)c([C@@H]3c4[nH]c5ccccc5c4C[C@@H](C)N3CC(C)(C)F)c(F)c2)C(C)(C)C)cc1` [Example 72, (2S,4R)-1-((S)-2-(2-(3-(3-(3,5-Difluoro-4-((1R,3R)-2-(2-fluoro-2-methylpropyl)-3-methyl-2,3,4,9-tetrahydro-1H-pyrido[3,4-b]indol-1-yl)phenoxy)propoxy)propoxy)acetamido)-3,3-dimethylbutanoyl)-4-hydroxy-N-(4-(4-methylthiazol-5-yl)benzyl)pyrrolidine-2-carboxamide], the IC50 in experiment [1] turned out to be 0.6 nM. In addition, the “ER degradation ≥ 90% at 0.3 μM” value in experiment [2] is “••”.
For the molecule `Cc1ncsc1-c1ccc(CNC(=O)[C@@H]2C[C@@H](O)CN2C(=O)[C@@H](NC(=O)COCCCc2cccc(COc3cc(F)c([C@@H]4c5[nH]c6ccccc6c5C[C@@H](C)N4CC(C)(C)F)c(F)c3)c2)C(C)(C)C)cc1` [Example 73, (2S,4R)-1-((S)-2-(2-(3-(3-((3,5-Difluoro-4-((1R,3R)-2-(2-fluoro-2-methylpropyl)-3-methyl-2,3,4,9-tetrahydro-1H-pyrido[3,4-b]indol-1-yl)phenoxy)methyl)phenyl)propoxy)acetamido)-3,3-dimethylbutanoyl)-4-hydroxy-N-(4-(4-methylthiazol-5-yl)benzyl)pyrrolidine-2-carboxamide], in experiment [1], the IC50 is 1 nM. Besides, the “ER degradation ≥ 90% at 0.3 μM” value in experiment [2] is “••”.
